Test results taken from PubChem BioAssay AID296 (DTP/NCI, 2004).
“And” between values parts separate entries of the source, which are not always exact repeats. Identical values can stand only once. Results filed as inconclusive are left out.

System: MX-1 breast xenograft, nude mice, tumor weight T/C
Assay: NCI In Vivo Anticancer Drug Screen. Data for tumor model Human Mammary Carcinoma MX-1 Xenograft (intrarenal inoculation) in NU/NU Swiss (nude) mice
Conditions: endpoint: mean tumor weight change, higher = larger tumour
Outline: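 Antitumour effect measured in vivo against vehicle controls, expressed as T/C.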

[1] = dose: 8.0 mg/kg/injection, schedule: Q01DX010 (sc), vehicle: saline
[2] = dose: 300.0 mg/kg/injection, schedule: Q04DX003 (sc), vehicle: saline with Tween-80
[3] = dose: 600.0 mg/kg/injection, schedule: Q04DX003 (sc), vehicle: saline with Tween-80
[4] = dose: 1200.0 mg/kg/injection, schedule: Q04DX003 (sc), vehicle: saline with Tween-80
[5] = dose: 2400.0 mg/kg/injection, schedule: Q04DX003 (sc), vehicle: saline with Tween-80
[6] = dose: 50.0 mg/kg/injection, schedule: Q01DX010 (sc), vehicle: saline
[7] = dose: 100.0 mg/kg/injection, schedule: Q01DX010 (sc), vehicle: saline with Tween-80
[8] = dose: 400.0 mg/kg/injection, schedule: Q01DX010 (sc), vehicle: saline with Tween-80
[9] = dose: 800.0 mg/kg/injection, schedule: Q01DX010 (sc), vehicle: saline with Tween-80

With N[C@H](C(=O)O)[C@@H]1CC(Cl)=NO1 the T/C (dose: 4.0 mg/kg/injection, schedule: Q01DX010 (sc), vehicle: suspension in saline) was -87 % of control, the T/C (dose: 4.0 mg/kg/injection, schedule: Q02DX005 (sc), vehicle: saline) was -33 % of control and the T/C (dose: 4.0 mg/kg/injection, schedule: Q04DX003 (sc), vehicle: saline) was 52 % of control. For the same molecule, the T/C [1] was -100 % of control and -89 % of control and -76 % of control, the T/C (dose: 8.0 mg/kg/injection, schedule: Q01DX010 (sc), vehicle: suspension in saline) was -86 % of control and the T/C (dose: 8.0 mg/kg/injection, schedule: Q02DX005 (sc), vehicle: saline) was -59 % of control. For the same molecule, the T/C (dose: 8.0 mg/kg/injection, schedule: Q04DX003 (sc), vehicle: saline) was 25 % of control, the T/C (dose: 16.0 mg/kg/injection, schedule: Q01DX010 (sc), vehicle: suspension in saline) was -82 % of control and the T/C (dose: 16.0 mg/kg/injection, schedule: Q02DX005 (sc), vehicle: saline) was -31 % of control. The T/C (dose: 16.0 mg/kg/injection, schedule: Q04DX003 (sc), vehicle: saline) was 7 % of control, the T/C (dose: 32.0 mg/kg/injection, schedule: Q01DX010 (sc), vehicle: suspension in saline) was -90 % of control and the T/C (dose: 32.0 mg/kg/injection, schedule: Q04DX003 (sc), vehicle: saline) was 5 % of control.

CC(C)CCCCCCCCCCCCC(=O)NCC(=O)NC1C(O)C(O)C(Nc2ncnc3nc[nH]c23)OC1C(O)CO (stereo unspecified) was tested, and the T/C (dose: 0.31 mg/kg/injection, schedule: Q01DX010 (sc), vehicle: saline) was 158 % of control, the T/C (dose: 0.4 mg/kg/injection, schedule: Q01DX010 (sc), vehicle: saline) was 194 % of control and the T/C (dose: 0.63 mg/kg/injection, schedule: Q01DX010 (sc), vehicle: saline) was 105 % of control. The T/C (dose: 0.8 mg/kg/injection, schedule: Q01DX010 (sc), vehicle: saline) was 93 % of control, the T/C (dose: 1.25 mg/kg/injection, schedule: Q01DX010 (sc), vehicle: saline) was 80 % of control and the T/C (dose: 1.6 mg/kg/injection, schedule: Q01DX010 (sc), vehicle: saline) was 40 % of control.

With Cc1cc(NS(=O)(=O)c2ccc(N=Nc3cc(N=Nc4ccc(S(=O)(=O)Nc5cc(C)nc(C)n5)cc4)c4c(NC(=O)C(Cl)Cl)cccc4c3OC(=O)C(Cl)Cl)cc2)nc(C)n1 (tested in a mixture with another compound) the T/C (dose: 2400.0 mg/kg/injection, schedule: Q04DX003 (sc), vehicle: suspension in saline) was 112 % of control.

For [CH3][Sn]([CH3])([Cl])[S]CCN, the T/C (dose: 18.75 mg/kg/injection, schedule: Q04DX003 (sc), vehicle: suspension in saline) was 77 % of control and the T/C (dose: 75.0 mg/kg/injection, schedule: Q04DX003 (sc), vehicle: suspension in saline) was 157 % of control.

With CCCCCCCC(=O)[O][Hg][CH2]C1COC([CH2][Hg][O]C(=O)CCCCCCC)CO1 (stereo unspecified) the T/C [2] was 58 % of control, the T/C [3] was 70 % of control and the T/C [4] was 50 % of control. The T/C [5] was 36 % of control.

For CC(=O)OCC1(C)NC(=O)c2ccccc2O1 (stereo unspecified), the T/C [2] was 108 % of control, the T/C [3] was 108 % of control and the T/C [4] was 156 % of control. For the same molecule, the T/C [5] was 85 % of control.

For Cc1c2cc[n+](CCN3CCCCC3)cc2c(C)c2c1[nH]c1ccc(O)cc12, the T/C (dose: 25.0 mg/kg/injection, schedule: Q04DX003 (sc), vehicle: suspension in saline) was 159 % of control, the T/C (dose: 50.0 mg/kg/injection, schedule: Q04DX003 (sc), vehicle: suspension in saline) was 163 % of control and the T/C (dose: 100.0 mg/kg/injection, schedule: Q04DX003 (sc), vehicle: suspension in saline) was 159 % of control.

For Cc1ccccc1N(CC1CO1)CC1CO1 (stereo unspecified), the T/C [6] was 54 % of control, the T/C (dose: 100.0 mg/kg/injection, schedule: Q01DX010 (sc), vehicle: saline) was 91 % of control and the T/C (dose: 200.0 mg/kg/injection, schedule: Q01DX010 (sc), vehicle: saline) was 89 % of control. For the same molecule, the T/C (dose: 400.0 mg/kg/injection, schedule: Q01DX010 (sc), vehicle: saline) was 56 % of control and the T/C (dose: 800.0 mg/kg/injection, schedule: Q01DX010 (sc), vehicle: suspension in saline) was 111 % of control.

For c1cc2n(n1)CCN2, the T/C [6] was 75 % of control and 77 % of control.

In the case of O=NNc1ccc(Cl)cn1, the T/C (dose: 18.7 mg/kg/injection, schedule: Q04DX003 (ip), vehicle: water) is reported as 24 % of control and the T/C (dose: 37.5 mg/kg/injection, schedule: Q04DX003 (ip), vehicle: water) is reported as -51 % of control.

CC1=C2CC(C)(C)/C=C\C(=O)/C(C)=C\C3=C[C@H](C)C[C@]3(O2)C1=O was tested, and the T/C (dose: 12.5 mg/kg/injection, schedule: Q04DX003 (sc), vehicle: Klucel (hydroxypropylcellulose) (HPC)) was 84 % of control, the T/C (dose: 25.0 mg/kg/injection, schedule: Q04DX003 (sc), vehicle: Klucel (hydroxypropylcellulose) (HPC)) was 100 % of control and the T/C (dose: 50.0 mg/kg/injection, schedule: Q04DX003 (sc), vehicle: Klucel (hydroxypropylcellulose) (HPC)) was 82 % of control.

In the case of Oc1ccc(SCc2ccc(NCc3ccccc3)cc2)cc1, the T/C (dose: 25.0 mg/kg/injection, schedule: Q01DX010 (sc), vehicle: saline with Tween-80) is reported as 104 % of control, the T/C (dose: 50.0 mg/kg/injection, schedule: Q01DX010 (sc), vehicle: saline with Tween-80) is reported as 46 % of control and the T/C [7] is reported as 92 % of control. For the same molecule, the T/C (dose: 200.0 mg/kg/injection, schedule: Q01DX010 (sc), vehicle: saline with Tween-80) was 74 % of control, the T/C [8] was 55 % of control and the T/C [9] was 94 % of control.

Cc1c2cc(Cl)c3ccccc3c2c[n+]2ccccc12 was tested, and the T/C [2] was 82 % of control, the T/C [3] was 67 % of control and the T/C [4] was 44 % of control. For the same molecule, the T/C [5] was 76 % of control.

COc1cccc2c1C(=O)c1c(O)c3c(c(O)c1C2=O)C[C@@](O)(C(=O)CO)C[C@@H]3OC1CC(N)C(OC)C(C)O1 (stereo partly specified) was tested, and the T/C (dose: 1.5 mg/kg/injection, schedule: Q01DX010 (sc), vehicle: saline) was 54 % of control.

In the case of COc1c(C=O)c2c(c(OC)c1OC)-c1ccc(OC)c(=O)cc1[C@@H](NC(C)=O)CC2, the T/C (dose: 18.75 mg/kg/injection, schedule: Q04DX003 (sc), vehicle: Klucel (hydroxypropylcellulose) (HPC)) is reported as 20 % of control and the T/C (dose: 37.5 mg/kg/injection, schedule: Q04DX003 (sc), vehicle: Klucel (hydroxypropylcellulose) (HPC)) is reported as 11 % of control.

With O=C1CC2(C(=O)N1CN1CCCCC1)c1ccccc1-c1ccccc12 the T/C (dose: 200.0 mg/kg/injection, schedule: Q04DX003 (sc), vehicle: Klucel (hydroxypropylcellulose) (HPC)) was 79 % of control, the T/C (dose: 400.0 mg/kg/injection, schedule: Q04DX003 (sc), vehicle: Klucel (hydroxypropylcellulose) (HPC)) was 71 % of control and the T/C (dose: 800.0 mg/kg/injection, schedule: Q04DX003 (sc), vehicle: Klucel (hydroxypropylcellulose) (HPC)) was 72 % of control.

In the case of Cc1cc(C)c(-c2cc(O)c(C)cc2O)c(C)c1, the T/C (dose: 300.0 mg/kg/injection, schedule: Q04DX003 (sc), vehicle: Klucel (hydroxypropylcellulose) (HPC)) is reported as 588 % of control, the T/C (dose: 600.0 mg/kg/injection, schedule: Q04DX003 (sc), vehicle: Klucel (hydroxypropylcellulose) (HPC)) is reported as 557 % of control and the T/C (dose: 1200.0 mg/kg/injection, schedule: Q04DX003 (sc), vehicle: Klucel (hydroxypropylcellulose) (HPC)) is reported as 388 % of control. For the same molecule, the T/C (dose: 2400.0 mg/kg/injection, schedule: Q04DX003 (sc), vehicle: Klucel (hydroxypropylcellulose) (HPC)) was 420 % of control.

COC12C(COC(N)=O)C3=C(C(=O)C(C)=C(N)C3=O)N1CC1C2N1C (stereo unspecified) was tested, and the T/C [1] was -96 % of control and -95 % of control.

With CCCCCCCCCCCCCC#CC(=O)O the T/C (dose: 75.0 mg/kg/injection, schedule: Q04DX003 (sc), vehicle: saline with Tween-80) was 87 % of control, the T/C (dose: 150.0 mg/kg/injection, schedule: Q04DX003 (sc), vehicle: saline with Tween-80) was 94 % of control and the T/C [2] was 92 % of control. The T/C [3] was 77 % of control.

Cc1cc(NCCCCCCNc2cc(C)nc3cc(N(C)C)ccc23)c2ccc(N(C)C)cc2n1 was tested, and the T/C (dose: 37.5 mg/kg/injection, schedule: Q04DX003 (sc), vehicle: distilled water + Tween-80 + alcohol) was 34 % of control, the T/C (dose: 75.0 mg/kg/injection, schedule: Q04DX003 (sc), vehicle: distilled water + Tween-80 + alcohol) was 49 % of control and the T/C (dose: 150.0 mg/kg/injection, schedule: Q04DX003 (sc), vehicle: distilled water + Tween-80 + alcohol) was 49 % of control. For the same molecule, the T/C (dose: 300.0 mg/kg/injection, schedule: Q04DX003 (sc), vehicle: distilled water + Tween-80 + alcohol) was 30 % of control.

C=CCNc1nc2c(s1)CCc1cc(OC)c(OC)cc1-2 was tested, and the T/C [2] was 92 % of control, the T/C [3] was 96 % of control and the T/C [4] was 80 % of control.

With O=Cc1ccc(C(Cl)(Cl)Cl)cc1 the T/C [7] was 182 % of control, the T/C [8] was 120 % of control and the T/C [9] was 46 % of control.

With Cc1ccc(N)c(N)c1 the T/C (dose: 200.0 mg/kg/injection, schedule: Q04DX003 (sc), vehicle: saline with Tween-80) was 87 % of control and the T/C (dose: 800.0 mg/kg/injection, schedule: Q04DX003 (sc), vehicle: saline with Tween-80) was 112 % of control.

With COc1nc(=O)n(C2C=CC(=O)O2)cc1F (stereo unspecified) the T/C (dose: 75.0 mg/kg/injection, schedule: Q04DX003 (sc), vehicle: Klucel (hydroxypropylcellulose) (HPC)) was 116 % of control.
